Literature values as cited in patent US8257918B2, “Intelligent nanomedicine integrating diagnosis and therapy” (The Regents of the University of California, priority 2004, dated 2012).

Experiments:
tumor = conditions: comparison with doxorubicin

Row | Structure (SMILES) | anti-tumor efficiency relative to doxorubicin (tumor) | cumulative doses that engender a substantial risk of cardiotoxicity
1 | COc1cccc2c1C(=O)c1c(O)c3c(c(O)c1C2=O)C[C@@](O)(C(=O)CO)C[C@@H]3O[C@H]1C[C@H](NC(=O)[C@@H](N)CC(C)C)[C@H](O)[C@H](C)O1 [Leu-Dox, N-1-leucyl-doxorubucin] | more efficient anti-tumor agents than doxorubicin | 
2 | COc1cccc2c1C(=O)c1c(O)c3c(c(O)c1C2=O)C[C@@](O)(C(=O)CO)C[C@@H]3O[C@H]1C[C@H](N)[C@H](O)[C@H](C)O1 [doxorubicin] |  | exceed 550 mg/m^2
